Experimental findings from patent US7183252B2, “Indole peptidomimetics as thrombin receptor antagonists” (Ortho-McNeil Pharmaceutical, Inc., priority 1999, dated 2007) are described below.

One assay relates to gel-filtered platelets. The experiment in a line: In vitro inhibition of thrombin-induced gel-filtered platelet aggregation. To be noted: human gel-filtered platelets, agonist thrombin 50 μL of 1 unit/mL, read-out: Thrmb IC50 (Thrombin-induced aggregation of gel-filtered platelets). The assay is classed as cell-based. Summed up: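 Gel-filtered (Sepharose 2B) human platelets from citrated PRP, 2×10^7 per sample, in Tyrode's buffer pH 7.4 with BSA and added calcium, preincubated with test compound. Aggregation induced by thrombin (50 μL of 1 unit/mL) and followed as light transmission over 3 min. Inhibition is taken relative to control-treated platelets.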

Assay [1] deals with T1, thrombin receptor (PAR-1) (Homo sapiens, UniProt P25116).
T1 construct: CHRF membranes (Jones, Biochim. Biophys. Acta 1992, 1136, 272) are thawed from −70° C; endogenous in cells; host or cells: CHRF cell membranes
T1 sequence (P25116 22-425): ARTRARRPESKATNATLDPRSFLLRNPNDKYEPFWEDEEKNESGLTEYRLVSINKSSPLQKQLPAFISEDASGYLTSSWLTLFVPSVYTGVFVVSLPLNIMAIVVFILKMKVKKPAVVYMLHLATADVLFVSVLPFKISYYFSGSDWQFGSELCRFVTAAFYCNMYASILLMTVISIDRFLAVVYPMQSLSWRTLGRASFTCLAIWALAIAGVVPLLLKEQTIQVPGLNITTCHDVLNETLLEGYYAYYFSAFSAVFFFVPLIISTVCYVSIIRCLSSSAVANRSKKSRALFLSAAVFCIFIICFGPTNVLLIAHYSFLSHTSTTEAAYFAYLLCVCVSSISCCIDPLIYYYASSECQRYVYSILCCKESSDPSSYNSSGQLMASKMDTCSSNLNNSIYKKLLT
In words: In vitro thrombin receptor binding assay (CHRF membranes). To be noted: tritiated 721-40 radioligand, read-out: Bndg IC50 (Thrombin receptor binding). Summed up:
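CHRF cell membranes incubated 30 min with tritiated peptide agonist 721–40 and compound at 3.7 μg/mL final (0.6% DMSO) in HEPES/MgCl2/BSA buffer. Nonspecific binding defined with unlabeled 721–40; bound radioactivity counted after filtration onto PEI-treated filters.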

Where two headings read alike, the source gives them in different places.

Consider `NCCC[C@H](NC(=O)[C@H](Cc1ccc(F)c(F)c1)NC(=O)Nc1ccc2c(CN3CCCC3)cn(Cc3c(Cl)cccc3Cl)c2c1)C(=O)NCc1ccccn1` [Compound 117], for which the IC50 (commonly the concentration that inhibits the measured activity by half) was found to be 4100 nM in the assay on gel-filtered platelets (Platelet) and 1000 nM in assay [1].
As to `CC(=N)NCC[C@H](NC(=O)[C@H](Cc1ccc(F)c(F)c1)NC(=O)Nc1ccc2c(CN3CCCC3)cn(Cc3c(Cl)cccc3Cl)c2c1)C(=O)NCc1ccccc1` [Compound 118], the IC50 in the assay on gel-filtered platelets (Platelet) came out at 280 nM; in assay [1] it was 430 nM.
Take `CN(Cc1cn(Cc2c(Cl)cccc2Cl)c2cc(NC(=O)N[C@@H](Cc3ccc(Cl)cc3)C(=O)N[C@@H](CCCN)C(=O)NCCc3ccccc3Cl)ccc12)C1CCCC1` [Compound 119]: the IC50 with gel-filtered platelets (Platelet) came to 3200 nM; in assay [1], 6200 nM.
In the same order, the values of `CN(Cc1cn(Cc2c(Cl)cccc2Cl)c2cc(NC(=O)N[C@@H](Cc3ccc(Cl)cc3)C(=O)N[C@@H](CCCN)C(=O)NC3Cc4ccccc4C3)ccc12)CC1OCCO1` [Compound 122] are 3500 nM and 10500 nM.
Turning to `Cn1cnc(CCNC(=O)[C@H](CCCN)NC(=O)[C@H](Cc2ccc(F)c(F)c2)NC(=O)Nc2ccc3c(CN4CCCC4)cn(Cc4c(Cl)cccc4Cl)c3c2)c1` [Compound 124], the values for the IC50 (in the assay with gel-filtered platelets; in assay [1]) were 440 nM and 1200 nM, respectively.
Consider `NCCC[C@H](NC(=O)[C@H](Cc1ccc(F)c(F)c1)NC(=O)Nc1ccc2c(CN3CCCC3)cn(Cc3c(Cl)cccc3Cl)c2c1)C(=O)NC1CCCC1` [Compound 125], for which the IC50 came out at 430 nM in the assay on gel-filtered platelets (Platelet) and 660 nM in assay [1].
On to `CN(C)CCNC(=O)[C@H](CCCN)NC(=O)[C@H](Cc1ccc(F)c(F)c1)NC(=O)Nc1ccc2c(CN3CCCC3)cn(Cc3c(Cl)cccc3Cl)c2c1` [Compound 126], for which the IC50 came to 460 nM in the assay with gel-filtered platelets (Platelet) and 1500 nM in assay [1].
For `NCCC[C@H](NC(=O)[C@H](Cc1ccc(F)c(F)c1)NC(=O)Nc1ccc2c(CN3CCCC3)cn(Cc3c(Cl)cccc3Cl)c2c1)C(=O)Nc1ccccc1` [Compound 127], the IC50 with gel-filtered platelets (Platelet) is 930 nM; in assay [1], 2400 nM.
In the same order, the values of `NCC[C@H](NC(=O)[C@H](CCc1ccccc1)NC(=O)Nc1ccc2c(CN3CCCC3)cn(Cc3c(Cl)cccc3Cl)c2c1)C(=O)NCc1ccccc1` [Compound 128] are 18800 nM and 3400 nM.
With `NCC[C@H](NC(=O)[C@H](Cc1ccc2ccccc2c1)NC(=O)Nc1ccc2c(CN3CCCC3)cn(Cc3c(Cl)cccc3Cl)c2c1)C(=O)NCc1ccccc1` [Compound 129], the values for the IC50 (in the assay on gel-filtered platelets (Platelet); in assay [1]) were 860 nM and 2500 nM, respectively.
As for `NCC[C@H](NC(=O)[C@H](Cc1cccnc1)NC(=O)Nc1ccc2c(CN3CCCC3)cn(Cc3c(Cl)cccc3Cl)c2c1)C(=O)NCc1ccccc1` [Compound 130], the IC50 with gel-filtered platelets (Platelet) came out at 27800 nM; in assay [1], 4800 nM.
In the same order, the values of `NCC[C@H](NC(=O)[C@H](Cc1cccs1)NC(=O)Nc1ccc2c(CN3CCCC3)cn(Cc3c(Cl)cccc3Cl)c2c1)C(=O)NCc1ccccc1` [Compound 131] are 940 nM and 1900 nM.
Take `NCC[C@H](NC(=O)[C@H](Cc1cscn1)NC(=O)Nc1ccc2c(CN3CCCC3)cn(Cc3c(Cl)cccc3Cl)c2c1)C(=O)NCc1ccccc1` [Compound 132]: the IC50 worked out at 22000 nM in the assay with gel-filtered platelets (Platelet) and 4200 nM in assay [1].
With `NCCNC(=O)[C@H](Cc1ccccc1)NC(=O)[C@H](Cc1ccc(Cl)cc1)NC(=O)Nc1ccc2c(CN3CCCC3)cn(Cc3c(Cl)cccc3Cl)c2c1` [Compound 133], the IC50 with gel-filtered platelets (Platelet) came out at 860 nM; in assay [1], 1500 nM.
Regarding `NCCNC(=O)[C@H](Cc1c[nH]cn1)NC(=O)[C@H](Cc1ccc(Cl)cc1)NC(=O)Nc1ccc2c(CN3CCCC3)cn(Cc3c(Cl)cccc3Cl)c2c1` [Compound 134], the half-maximal inhibitory concentration (IC50) was 950 nM with gel-filtered platelets (Platelet) and 1200 nM in assay [1].
With `NCCNC(=O)[C@H](Cc1ccncc1)NC(=O)[C@H](Cc1ccc(Cl)cc1)NC(=O)Nc1ccc2c(CN3CCCC3)cn(Cc3c(Cl)cccc3Cl)c2c1` [Compound 135, L-Alaninamide, 4-chloro-N-[[[1-[(2,6-dichlorophenyl)methyl]-3-(1-pyrrolidinylmethyl)-1H-indol-6-yl]amino]carbonyl]-L-phenylalanyl-N-(2-aminoethyl)-3-(4-pyridinyl)-], the IC50 is 690 nM in the assay on gel-filtered platelets and 890 nM in assay [1].
As for `NCCNC(=O)[C@H](Cc1cccs1)NC(=O)[C@H](Cc1ccc(Cl)cc1)NC(=O)Nc1ccc2c(CN3CCCC3)cn(Cc3c(Cl)cccc3Cl)c2c1` [Compound 136], the figures for the IC50 (in the assay with gel-filtered platelets (Platelet); in assay [1]) were 550 nM and 1100 nM, respectively.
For the molecule `NCCNC(=O)[C@H](Cc1cscn1)NC(=O)[C@H](Cc1ccc(Cl)cc1)NC(=O)Nc1ccc2c(CN3CCCC3)cn(Cc3c(Cl)cccc3Cl)c2c1` [Compound 137], the IC50 in the assay with gel-filtered platelets (Platelet) stood at 940 nM; in assay [1], 810 nM.
For the molecule `NCCNC(=O)[C@H](Cc1cccc(F)c1)NC(=O)[C@H](Cc1ccc(F)c(F)c1)NC(=O)Nc1ccc2c(CN3CCCC3)cn(Cc3c(Cl)cccc3Cl)c2c1` [Compound 138], the figures for the IC50 (in the assay with gel-filtered platelets (Platelet); in assay [1]) were 330 nM and 2000 nM, respectively.
With `CC(=N)NCCNC(=O)[C@H](Cc1ccncc1)NC(=O)[C@H](Cc1ccc(Cl)cc1)NC(=O)Nc1ccc2c(CN3CCCC3)cn(Cc3c(Cl)cccc3Cl)c2c1` [Compound 139], the IC50 stood at 330 nM in the assay with gel-filtered platelets (Platelet) and 1000 nM in assay [1].
In the case of `CC(=N)NCCNC(=O)[C@H](CCNC(C)=N)NC(=O)[C@H](Cc1ccc(F)c(F)c1)NC(=O)Nc1ccc2c(CN3CCCC3)cn(Cc3c(Cl)cccc3Cl)c2c1` [Compound 140], the figures for the IC50 (in the assay on gel-filtered platelets (Platelet); in assay [1]) were 740 nM and 120 nM, respectively.
In the same order, the values of `NCC[C@H](NC(=O)[C@H](Cc1ccc(F)c(F)c1)NC(=O)Nc1ccc2c(CN3CCCC3)cn(Cc3c(Cl)cccc3Cl)c2c1)C(=O)NCCN1CCCC1` [Compound 141] are 200 nM and 70 nM.
In the case of `NCC[C@H](NC(=O)[C@H](Cc1ccc(F)c(F)c1)NC(=O)Nc1ccc2c(CN3CCCC3)cn(Cc3c(Cl)cccc3Cl)c2c1)C(=O)NCCc1c[nH]cn1` [Compound 142], the IC50 came to 1900 nM in the assay on gel-filtered platelets (Platelet) and 480 nM in assay [1].
`CSCC[C@H](NC(=O)[C@H](Cc1ccc(F)c(F)c1)NC(=O)Nc1ccc2c(CN3CCCC3)cn(Cc3c(Cl)cccc3Cl)c2c1)C(=O)NCCN` [Compound 143]: the IC50 turned out to be 290 nM with gel-filtered platelets (Platelet) and 20 nM in assay [1].
In the same order, the values of `CCOC(=O)N1CCC(NC(=O)[C@H](CCN)NC(=O)[C@H](Cc2ccc(F)c(F)c2)NC(=O)Nc2ccc3c(CN4CCCC4)cn(Cc4c(Cl)cccc4Cl)c3c2)CC1` [Compound 144] are 320 nM and 70 nM.
Regarding `NCCCNC(=O)[C@H](Cc1ccncc1)NC(=O)[C@H](Cc1ccc(Cl)cc1)NC(=O)Nc1ccc2c(CN3CCCC3)cn(Cc3c(Cl)cccc3Cl)c2c1` [Compound 145], the IC50 is 250 nM in the assay on gel-filtered platelets (Platelet) and 500 nM in assay [1].
With `NCCNC(=O)CCNC(=O)[C@H](Cc1ccc(Cl)cc1)NC(=O)Nc1ccc2c(CN3CCCC3)cn(Cc3c(Cl)cccc3Cl)c2c1` [Compound 146], the IC50 in the assay on gel-filtered platelets (Platelet) came to 11100 nM; in assay [1], 2800 nM.
As for `NCCNC(=O)CNC(=O)[C@H](Cc1cccc(F)c1)NC(=O)Nc1ccc2c(CN3CCCC3)cn(Cc3c(Cl)cccc3Cl)c2c1` [Compound 147], the values for the IC50 (in the assay on gel-filtered platelets (Platelet); in assay [1]) were 4400 nM and 420 nM, respectively.
In the same order, the values of `CC(C)[C@H](NC(=O)[C@H](Cc1ccc(Cl)cc1)NC(=O)Nc1ccc2c(CN3CCCC3)cn(Cc3c(Cl)cccc3Cl)c2c1)C(=O)NCCN` [Compound 148] are 1400 nM and 140 nM.
For `CCSC[C@H](NC(=O)[C@H](Cc1ccc(Cl)cc1)NC(=O)Nc1ccc2c(CN3CCCC3)cn(Cc3c(Cl)cccc3Cl)c2c1)C(=O)NCCN` [Compound 149], the IC50 in the assay with gel-filtered platelets (Platelet) came to 1200 nM; in assay [1] it was 150 nM.
For the molecule `NCCNC(=O)[C@H](CO)NC(=O)[C@H](Cc1ccc(F)c(F)c1)NC(=O)Nc1ccc2c(CN3CCCC3)cn(Cc3c(Cl)cccc3Cl)c2c1` [Compound 150], the IC50 in the assay on gel-filtered platelets (Platelet) is 1400 nM; in assay [1] it was 100 nM.
With `NCCNC(=O)[C@H](CSC(c1ccccc1)(c1ccccc1)c1ccccc1)NC(=O)[C@H](Cc1ccc(F)c(F)c1)NC(=O)Nc1ccc2c(CN3CCCC3)cn(Cc3c(Cl)cccc3Cl)c2c1` [Compound 151], the values for the IC50 (in the assay on gel-filtered platelets; in assay [1]) were 2900 nM and 450 nM, respectively.
As to `Cc1cccc(Cn2cc(CN3CCCC3)c3ccc(NC(=O)N[C@@H](Cc4ccc(F)c(F)c4)C(=O)N[C@@H](Cc4cccs4)C(=O)NCCCN)cc32)c1` [Compound 153], the IC50 with gel-filtered platelets (Platelet) turned out to be 790 nM; in assay [1], 27000 nM.
With `NCC[C@H](NC(=O)[C@H](Cc1ccc(F)c(F)c1)NC(=O)Nc1ccc2c(CN3CCSC3)cn(Cc3c(Cl)cccc3Cl)c2c1)C(=O)NCc1ccccc1` [Compound 154], the values for the IC50 (in the assay with gel-filtered platelets (Platelet); in assay [1]) were 12900 nM and 750 nM, respectively.
